Source: US10369161B2, “Use of 2-methylene-19-NOR-(20S)-1-alpha,25-dihydroxyvitamin D3 to treat primary hyperparathyroidism” (Wisconsin Alumni Research Foundation, priority 2014, dated 2019)

Tests used:
Assay type in all cases: in vivo, human
[1] = tested on: serum parathyroid hormone (PTH); experiment: Phase 1B Dose-Finding Study in Postmenopausal Women: serum PTH in subjects with >60 pg/ml serum PTH at baseline; settings: after 28 days
Procedure: (§1) Reference is made to Zella et al., “Novel, Selective Vitamin D Analog Suppresses Parathyroid Hormone in Uremic Animals and Postmenopausal Women, Am J. Nephrology 2014; 39:476-483, May 17, 2014, the content of which is incorporated herein by reference in its entirety. Zella et al. discloses the results from a Phase 1B Dose-Finding Study in Postmenopausal Women in which the participants were administered various doses of 2MD and afterwards, serum parathyroid hormone (PTH) levels and serum calcium levels were monitored. In Zella et al.'s study, post-menopausal women were treated orally once daily with 2MD, calcitriol, or placebo for 28 days. Serum samples for PTH analysis were collected at baseline and 2, 7, 14, and 28 days after the first dose was administered.
In FIG. 1 of the present application, the results from the Phase 1B Dose-Finding Study in Postmenopausal Women from Zella et al. were plotted using only data from subjects that would be classified as having primary hyperparathyroidism or on a watch list for having primary hyperparathyroidism (i.e., subjects having >60 pg/ml serum PTH at baseline). In FIG. 1, the number of subjects administered each dose of 2MD, calcitriol, or placebo, consisted of the following: 0.05 μg 2MD-2 subjects, 0.11 μg 2MD-3 subjects; 0.17 μg 2MD-4 subjects; 0.44 μg 2MD-2 subjects; 0.5 μg calcitriol-1 subject; and placebo-1 subject. As indicated, PTH levels in the subjects administered 2MD at: doses of 0.11 μg, 0.17 μg, and 0.4 μg decreased over time at a level corresponding, to the dose of 2MD. After 28 days, a dose of 2MD of 0.11 μg, 0.17 μg, and. […] (See FIG. 2 and FIG. 3). In summary, 2MD could be administered orally at a daily dose of 0.11 μg-0.44 μg to treat subjects having primary hyperparathyroidism or at risk, for developing primary hyperparathyroidism.

[2] = Phase 1B Dose-Finding Study in Postmenopausal Women: serum phosphate levels; settings: baseline vs 28 days, orally once daily, subjects with >60 pg/ml serum PTH at baseline
Procedure: as §1
(§2) In FIG. 1 of the present application, the results from the Phase 1B Dose-Finding Study in Postmenopausal Women from Zella et al. were plotted using only data from subjects that would be classified as having primary hyperparathyroidism or on a watch list for having primary hyperparathyroidism (i.e., subjects having >60 pg/ml serum PTH at baseline). In FIG. 1, the number of subjects administered each dose of 2MD, calcitriol, or placebo, consisted of the following: 0.05 μg 2MD-2 subjects, 0.11 μg 2MD-3 subjects; 0.17 μg 2MD-4 subjects; 0.44 μg 2MD-2 subjects; 0.5 μg calcitriol-1 subject; and placebo-1 subject. […]

[3] = Phase 1B Dose-Finding Study in Postmenopausal Women: serum calcium levels; settings: baseline vs 28 days, orally once daily, subjects with >60 pg/ml serum PTH at baseline
Procedure: as §1, §2

rise in serum calcium levels [3] | SMILES | increase in PTH ([1]; 0.5 μg orally once daily) [%] | rise in serum phosphate levels [2] | increase in PTH ([1]; 0.05 μg orally once daily) [%] | decrease in PTH ([1]; 0.11 μg orally once daily) [%] | decrease in PTH ([1]; 0.17 μg orally once daily) [%] | decrease in PTH ([1]; 0.4 μg orally once daily) [%]
– | C=C1/C(=C\C=C2/CCC[C@]3(C)[C@@H]([C@H](C)CCCC(C)(C)O)CC[C@@H]23)C[C@@H](O)C[C@@H]1O [calcitriol, reference compound] | 15 | – | – | – | – | –
without increasing serum calcium | C=C1[C@H](O)CC(=C/C=C2\CCC[C@@]3(C)C2CCC3[C@@H](C)CCCC(C)(C)O)C[C@H]1O (stereo partly drawn) [2MD, 2-methylene-19-nor-(20S)-1α,25-dihydroxyvitamin D3] | – | without increasing serum calcium or serum phosphate | 16 | −7 | −31 | −44
